Experimental data from patent US20240066057A1, “METHOD FOR TREATING PAIN USING VANADIUM COMPOUNDS” (HUNAN FANGSHENGTAI MEDICAL TECHNOLOGY CO., LTD, priority 2020, published 2024).
“Also recorded” adds a separate entry of the source.

Columns and labels:
[1] = system: Kunming mice with CFA-induced inflammation; test: Von Frey test (50% paw withdrawal threshold) in CFA-induced inflammatory pain mouse model; assay type: in vivo
Experimental: 10 μL of complete Freund's adjuvant (CFA) was injected into the left hind foot of mice (♂ Kunming mice, 22 g to 40 g) to induce inflammation. 24 hours after the injection, a Von Frey test was performed to determine a pain threshold. That is, under the guidance of Dixon's Up-Down method, Von Frey fibers were used to induce the mechanical paw withdrawal of the mice, and data were collected and calculated to obtain their 50% paw withdrawal thresholds (paw withdrawal threshold or PWT for short, i.e. pain threshold). Mice were then divided into different groups, including a normal saline group, a positive control group, and a drug group, which were intraperitoneally injected with normal saline, an aspirin (acetylsalicylic acid, or ASA) solution and a solution of compound for testing respectively. A Von Frey test was then performed to monitor changes in pain threshold.
Mice were divided into three groups: a blank control group, an aspirin (ASA) group, and a drug group. In blank control group, the mice were given normal saline, deionized water or deionized water containing ≤5% DMSO at the same volume as that in the drug group. In ASA group, the mice were given the known analgesic drug ASA as the positive control for tested compounds. In drug group, the mice were given compounds for testing accordingly. Due attention was paid to observe whether the pain threshold rose, the period during which the rise was maintained and the magnitude of the rise, after the injection of a tested compound solution.

[2] = system: mice that suffered from pain due to induced inflammation; conditions: intrathecal injection, inflammatory pain; cited from earlier work
[3] = system: Kunming mice with CFA-induced inflammation; test: Effective concentration and plateau experiment of vanadium compounds, tail vein injection, mouse pain model; assay type: in vivo
[4] = system: Kunming mice with CFA-induced inflammation; test: Von Frey test (50% paw withdrawal threshold) in CFA-induced inflammatory pain mouse model; assay type: in vivo; conditions: Example 10; G1 injected through the tail vein 0.49 mg/kg (atomic mass of vanadium); ASA group as control
[5] = Example 3, intraperitoneal injection, A1 0.97 mg/kg (atomic mass of vanadium), S about 250 mg/kg
[6] = Example 5, intraperitoneal injection, C 1.9 mg/kg (atomic mass of vanadium), S about 250 mg/kg
[7] = Example 6, intraperitoneal injection, D 1.9 mg/kg, S about 250 mg/kg
[8] = Example 7, intraperitoneal injection, B 0.97 mg/kg (atomic mass of vanadium), S about 250 mg/kg
[9] = Example 8, intraperitoneal injection, E 0.97 mg/kg (atomic mass of vanadium), ASA about 250 mg/kg
[10] = Example 9, intraperitoneal injection, F 0.97 mg/kg (atomic mass of vanadium), ASA about 250 mg/kg
[11] = Example 11 (BEOV), intraperitoneal injection, I about 0.97 mg/kg (atomic mass of vanadium)
[12] = Example 11 (BMOV), intraperitoneal injection, H1 about 0.97 mg/kg (atomic mass of vanadium)
[13] = Example 12, intraperitoneal injection, J about 0.97 mg/kg (atomic mass of vanadium)
[14] = Example 13, intraperitoneal injection, K about 0.97 mg/kg (atomic mass of vanadium)
[15] = Example 14, intraperitoneal injection, L about 0.97 mg/kg (atomic mass of vanadium)
[16] = Example 15, intraperitoneal injection, M about 0.97 mg/kg (atomic mass of vanadium)
[17] = Example 16, intraperitoneal injection, N about 0.97 mg/kg (atomic mass of vanadium)
[18] = Example 17, intraperitoneal injection, O about 0.97 mg/kg (atomic mass of vanadium)
[19] = Example 18, intraperitoneal injection, P about 0.97 mg/kg (atomic mass of vanadium)
[20] = Example 19, intraperitoneal injection, Q about 0.97 mg/kg (atomic mass of vanadium)
[21] = Example 20, intraperitoneal injection, R about 0.97 mg/kg (atomic mass of vanadium)
[22] = Plateau experiment, dose (vanadium) A5/G3 0.25, A1/G1/H1 0.49, A4/G2/H2 0.97, H3 1.9 mg/kg, 6 samples, listed as G1

[Na+].[Na+].[Na+].[O]=[V]([O-])([O-])[O-] [Solution A, Sodium orthovanadate]
Analgesic effect ([1]; mouse, in vivo, ip): have an analgesic effect | Effective duration compared with aspirin (ASA) ([1]; mouse, in vivo, ip): significantly longer duration of action than that of ASA; also recorded: longer than that of aspirin | Analgesic effect [2]: found the analgesic effect | Minimum effective dose ([3]; mice): about 1.0×10^−3 mg/kg | Blood concentration in mice equivalent to the plateau dose ([3]; plateau dose 0.49 mg/kg): 140 µM

CC(=O)Oc1ccccc1C(=O)O [Solution S, acetylsalicylic acid, reference compound]
Duration [1, 5]: <45 min | Onset time [1, 5]: 15 to 30 after injection min | Duration [1, 6]: <45 min | Onset time [1, 6]: 15 to 30 after injection min | Duration ([1]; Example 5, intraperitoneal injection, C 1.9 mg/kg (atomic mass of vanadium), S about 250 mg/kg, listed as ASA): < 45 min | Duration [1, 7]: <45 min | Onset time [1, 7]: 15 to 30 after injection min | Duration ([1]; Example 6, intraperitoneal injection, D 1.9 mg/kg, S about 250 mg/kg, listed as ASA): < 45 min | Duration [1, 8]: <45 min | Onset time [1, 8]: 15 to 30 after injection min | Duration ([1]; Example 7, intraperitoneal injection, B 0.97 mg/kg (atomic mass of vanadium), S about 250 mg/kg, listed as ASA): < 45 min | Duration [1, 9]: <45 min | Onset time [1, 9]: 15 to 30 after injection min | Duration ([1]; Example 8, intraperitoneal injection, E 0.97 mg/kg (atomic mass of vanadium), ASA about 250 mg/kg, listed as ASA): < 45 min | Duration [1, 10]: <45 min | Onset time [1, 10]: 15 to 30 after injection min | Duration ([1]; Example 9, intraperitoneal injection, F 0.97 mg/kg (atomic mass of vanadium), ASA about 250 mg/kg, listed as ASA): < 45 min | Duration [1, 11]: <45 min | Onset time [1, 11]: 15 to 30 after injection min | Duration [1, 12]: <45 min | Onset time [1, 12]: 0 to 15 after injection min | Duration [1, 13]: <45 min | Onset time [1, 13]: 15 to 30 after injection min | Duration [1, 14]: <45 min | Onset time [1, 14]: 0 to 15 after injection min | Duration [1, 15]: <45 min | Onset time [1, 15]: 15 to 30 after injection min | Duration [1, 16]: <45 min | Onset time [1, 16]: 15 to 30 after injection min | Duration [1, 17]: <45 min | Onset time [1, 17]: 15 to 30 after injection min | Duration [1, 18]: <45 min | Onset time [1, 18]: 15 to 30 after injection min | Duration [1, 19]: <45 min | Onset time [1, 19]: 15 to 30 after injection min | Duration [1, 20]: <45 min | Onset time [1, 20]: 15 to 30 after injection min | Duration [1, 21]: <45 min | Onset time [1, 21]: 15 to 30 after injection min | Time after injection at which the pain threshold returned to the baseline value ([1]; intraperitoneal injection, doses as in Examples 3-9): about 60 minutes | Duration [4]: <45 min | Onset time [4]: 0 to 15 after injection min

O=S(=O)([O-])[O-].[O]=[V+2] [Solution G1, Vanadyl sulfate]
Duration [4]: >60 min | Onset time [4]: 0 to 15 after injection min | Duration [3, 22]: >60 min | Maximum analgesic intensity (mean) [3, 22]: ~0.49 g
